Series [1] in a line: DPPH radical-scavenging assay. The series is classed as biochemical. The conditions noted are these: 30 min in the dark, 517 nm; read-out: IC50 against DPPH•. The method, then: (§1) The stock solutions of the reference antioxidants (ascorbic acid, Trolox, EDTA-Na2) and compounds 3a–j were prepared by dissolving the solid powders in DMSO, obtaining 2 mM stock solutions. Following this, an additional set of solutions (0.2 mM) for each compound was obtained by dilution with DMSO. Absorption spectra of the tested compounds covering the range from 400 nm to 800 nm were recorded, indicating no absorption peaks near the wavelengths employed in the experiments. All measurements in the presented assays were made against blank samples. To quantify the activity of the compounds 3a–j, for the antiradical assays (DPPH and ABTS) and ferrous ion chelation, IC50 was calculated using Equation (1), while for the electron transfer assays (TAC, RP, FRAP and CUPRAC), the reference number of mole equivalent activity for each compound was calculated using Equation (2). (1) radical scavenging (%)=control absorbance−sample absorbance/control absorbance×100 (2) equivalents of control=sample absorbance/control absorbance
The DPPH˙ (2,2-diphenyl-1-picrylhydrazyl) radical-scavenging assay, initially reported by Brand-Williams et al., relies on transferring a hydrogen atom from the antioxidant substrate being analyzed to the stable violet radical of DPPH˙. This action converts DPPH˙ into a nonradical stable yellow compound. The reduction in absorbance of the DPPH˙ at λ = 517 nm corresponds to the quantity of neutralized reagent. To perform the DPPH assay, we took 50, 75, 100, 125, and 150 µL of each sample from their 0.2 mM stock solutions, then we adjusted the volumes with DMSO to ensure all samples reached a uniform final volume. These solutions were mixed with 1 mL of DPPH reagent and incubated in the dark for 30 min, as presented in literature reports.

Series [2] is described as follows: ABTS radical cation decolorization assay. The series is classed as biochemical. Particulars: 10 min, pH 7.4, 734 nm; read-out: IC50 against ABTS•+. The method, then: as §1
The decolorization assay of the green ABTS^•+ (2,2′-azinobis-(3-ethylbenzothiazoline-6-sulfonic acid) to ABTS, based on the report of Re et al., was conducted following our group’s published report. The chemical stability of the ABTS^•+ reagent prior to use was checked at λ = 734 nm over one hour, ensuring a consistent absorption (approximately equal to 0.7). The reagent was prepared in potassium phosphate buffer (0.1 M, pH = 7.4) and activated overnight using MnO2 [17]. In all cuvettes, we added 100 μL of the tested compound solutions (0.2 mM) in increasing concentrations up to 200 µL and 2000 µL of the ABTS^•+ reagent. The resulting mixtures were thoroughly shaken for 10 min at room temperature, in the absence of light. The optical absorbance of the resulting mixtures was then measured by spectrophotometry at λ = 734 nm.

Series [3] is described as follows: Total Antioxidant Capacity (TAC) assay. Format: biochemical. The conditions noted are these: 95 °C, 1.5 h, 695 nm. The method, then: as §1
The Total Antioxidant Capacity (TAC) assay was conducted following the methodology outlined in our previous publication, which was based on initial reports from the literature. A volume of 10 mL of the reagent (0.6 M H2SO4, 28 mM Na3PO4 and 4 mM (NH4)6Mo7O24) and 1000 µL of the compound and standard solutions dispensed from the 2 mM stock solutions were mixed in sealed glass test tubes and incubated in a water bath at 95 °C for 1.5 h. After cooling the test tubes to room temperature, 1000 µL of each solution was diluted with 1000 µL of water. The absorbance of the solutions was then measured at λ = 695 nm.

The nature of series [4]: Reducing power (RP) assay. The series is classed as biochemical. The conditions noted are these: 50 °C, 20 min, pH 6.6. As to the method:
as §1
In the reducing power (RP) assay, the tested compounds performed the reduction of ferric ions from potassium ferricyanide, forming ferrocyanide, which gives a blue complex. The protocol followed is an adaptation of previously reported methodologies. In glass test tubes, 1000 µL of solutions containing compounds and standards measured from the 0.2 mM stock solutions were mixed with 400 µL of phosphate buffer (0.2 M, pH = 6.6) and 400 µL of K3[Fe(CN)6] solution (1% w/v). The tubes were sealed and incubated for 20 min in a water bath at 50 °C. After cooling to room temperature, 500 µL of trichloroacetic acid (10% w/w) was added to all test tubes The resulting mixtures were left for 0.5 h at room temperature. Subsequently, 250 µL of the resulting solutions were mixed with 140 µL of FeCl3 solution (0.1% w/v) and 1000 µL of distilled water, and the absorbance of the resulting solutions was determined at λ = 695 nm.

Series [5] can be described thus: Ferric-Reducing Antioxidant Potential (FRAP) assay. Format: biochemical. Particulars: pH 3.6, 593 nm. As to the method:
as §1
The Ferric-Reducing Antioxidant Potential (FRAP) assay relies on the transfer of an electron from the antioxidant being assessed to Fe^3+, resulting in its conversion to Fe^2+. The resulting Fe^2+ ions are then chelated by 2,4,6-tripyridyl-s-triazine, giving a blue-colored complex, with an absorption maximum at λ = 593 nm. A 500 µL amount of the solutions (0.2 mM) of compounds and reference compounds was mixed with 600 µL FRAP reagent and 1200 µL acetate buffer (0.3 M, pH = 3.6), according to previous reports. The resulting solutions were mixed well in the dark, and their absorbance was measured spectrophotometrically.

Series [6] in a line: CUPRAC (CUPric-Reducing Antioxidant Capacity) assay. The series is classed as biochemical. Particulars: 30 min, 450 nm. As to the method: as §1
The electron-donating capacity of compounds was assessed using the CUPRAC (CUPric-Reducing Antioxidant Capacity) method. The protocol for this assay is a modification of the reports of Alam et al., Özyürek et al., and Apak et al.. Volumes of 250 µL of CuCl2 10 mM, 1 mL of ammonium acetate buffer 1 M, and 250 µL of 7.5 mM neocuproine in ethanol were mixed with 125 µL of samples and reference compound solutions (0.2 mM). The mixtures were shaken for 30 min in the dark; after that, their absorbance was determined spectrophotometrically at λ = 450 nm.

Series [7] can be described thus: Ferrous ion chelation assay (ferrozine). Set-up: key: - represents negligible activity. The series is classed as biochemical. The method, then:
as §1
To evaluate the ability of compounds to chelate ferrous ions, an assay was performed using an adaptation of Dinis et al.’s initial report. The solutions of the tested compounds (2 mM) were mixed well with 500 µL of FeSO4 (0.125 mM), and 500 µL of ferrozine 0.315 mM. After 10 min, the absorbance of the samples was determined spectrophotometrically at λ = 562 nm. EDTA-Na2 was used as a positive control, due to its exceptional ion chelation properties.

Series [8] deals with human pulmonary malignant cells (A549). Nature of the series: Alamar Blue cytotoxicity assay, A549 cells. The conditions noted are these: for IC50: 48 h exposure, Alamar Blue, read-out: IC50 (±SD) A549; for Selectivity Index: ratio between the calculated IC50 on BJ and A549 cells, 48 h. Format: cell-based. As to the method:
(§2) BJ cells were maintained in Dulbecco’s modified Eagle’s medium (DMEM) with low glucose (1 g/L), while the A549 cells were seeded in DMEM with high glucose (5 g/L). All media were supplemented with 10% fetal bovine serum (FBS) and 1% Penicillin/Streptomycin. […] Cellular media were refreshed every other day. Cells were either subcultured or used in experiments once they reached a confluency of 80–90%.
(§3) The cytotoxicity of the synthesized compounds was evaluated by Alamar Blue (AB) assays performed on both cell lines, A549 and BJ, after a 48 h exposure, as previously reported.
(§4) Briefly, approximately 7000 A549 cells and 4000 normal BJ cells were seeded in 100 µL cellular media in 96-well plates to achieve a confluency of 70–80% at the end of the experiment and left to attach overnight before exposure. […] Post-exposure, the media were removed, and the AB assay was performed, with cells being incubated with a 200 µM solution of resazurin for 4 h. The obtained fluorescence was measured at λexcitation = 530/25; λemission = 590/35.
(§5) The experiments included three biological replicates, each one including three technical replicates. The negative control (NC) consisted of cells exposed to a cell culture medium containing 0.2% DMSO and was used for data normalization (100%).

Series [9] deals with normal human foreskin fibroblasts (BJ). Nature of the series: Alamar Blue cytotoxicity assay, BJ cells. The series is classed as cell-based. The conditions noted are these: for IC50: 48 h exposure, Alamar Blue. The method, then: as §2, §3, §4, §5

Each structure is given as a SMILES string. Where two headings read alike, the source gives them in different places.

In the case of `Oc1ccc(-c2csc(-c3ccccc3)n2)cc1O` [Compound 3b], the IC50 in [1] was found to be 50.2 µM; in series [2], 14 µM; in series [8], 8.91 µM; in series [9], 78.6 µM. For the same compound, in series [3], the “TAC Eq Ascorbic Acid” value came to 1.00 Eq Ascorbic Acid. Besides, in series [4], the “RP Eq Ascorbic Acid” value is 1.60 Eq Ascorbic Acid. The “RP Eq Trolox” value in series [4] turned out to be 1.33 Eq Trolox. For the same compound, in [5], the “FRAP Eq Trolox” value came to 1.07 Eq Trolox. In addition, in [6], the “CUPRAC Eq Trolox” value is on record as 2.27 Eq Trolox. Moreover, the “ferrous ion chelation percent” value in series [7] (0.25 µM), in [7] (0.5 µM), in series [7] (1 µM), in series [7] (1.5 µM) and in [7] (2 µM) was “-” each time. The “Selectivity Index” value in series [8] is recorded as 8.82.

Turning to `Cc1ccc(-c2nc(-c3nc(-c4ccc(O)c(O)c4)cs3)cs2)cc1` [Compound 3j, 4-(2′-(p-tolyl)-[2,4′-bithiazol]-4-yl)benzene-1,2-diol], the IC50 in series [1] stood at 49.6 µM; in series [2], 17.7 µM; in series [8] (Homo sapiens, A549) it was 4.28 µM; in series [9] (Homo sapiens, Fibroblast) it was 24.2 µM. In [3], the “TAC Eq Ascorbic Acid” value came out at 0.36 Eq Ascorbic Acid. Also, the “RP Eq Ascorbic Acid” value in series [4] is 1.81 Eq Ascorbic Acid. Besides, the “RP Eq Trolox” value in [4] is recorded as 1.50 Eq Trolox. For the same compound, the “FRAP Eq Trolox” value in [5] came out at 1.06 Eq Trolox. For the same compound, the “CUPRAC Eq Trolox” value in series [6] is on record as 1.61 Eq Trolox. For the same compound, the “ferrous ion chelation percent” value in series [7] (0.25 µM), in series [7] (0.5 µM), in [7] (1 µM), in series [7] (1.5 µM) and in series [7] (2 µM) was “-” throughout. In addition, in series [8], the “Selectivity Index” value is recorded as 5.67.

Consider `Oc1ccc(-c2csc(-c3ccccn3)n2)cc1O` [Compound 3h, 4-(2-(pyridin-2-yl)thiazol-4-yl)benzene-1,2-diol], for which the IC50 in series [1] was 40.3 µM; in series [2], 13.5 µM; in series [8] (Homo sapiens, A549), 13.1 µM; in [9] (Homo sapiens, Fibroblast), 76.7 µM. In series [3], the “TAC Eq Ascorbic Acid” value stood at 1.34 Eq Ascorbic Acid. The “RP Eq Ascorbic Acid” value in series [4] was determined as 2.06 Eq Ascorbic Acid. Moreover, in [4], the “RP Eq Trolox” value is 1.71 Eq Trolox. Besides, in [5], the “FRAP Eq Trolox” value worked out at 1.03 Eq Trolox. For the same compound, the “CUPRAC Eq Trolox” value in [6] was 2.13 Eq Trolox. Further, the “ferrous ion chelation percent” value in [7] (0.25 µM), in series [7] (0.5 µM), in series [7] (1 µM), in series [7] (1.5 µM) and in series [7] (2 µM) was “-” in each case. Besides, the “Selectivity Index” value in [8] is 5.84.

On to `Cc1cccc(-c2nc(-c3ccc(O)c(O)c3)cs2)c1` [Compound 3e, 4-(2-(m-tolyl)thiazol-4-yl)benzene-1,2-diol], for which the IC50 in series [1] came to 46.8 µM; in [2], 13.9 µM; in [8] (Homo sapiens, A549), 6.46 µM; in series [9] (Homo sapiens, Fibroblast) it was 46.8 µM. Also, the “TAC Eq Ascorbic Acid” value in [3] is on record as 0.91 Eq Ascorbic Acid. In [4], the “RP Eq Ascorbic Acid” value is listed as 1.64 Eq Ascorbic Acid. The “RP Eq Trolox” value in [4] stood at 1.37 Eq Trolox. Further, in series [5], the “FRAP Eq Trolox” value came to 1.07 Eq Trolox. The “CUPRAC Eq Trolox” value in series [6] is reported as 3.13 Eq Trolox. The “ferrous ion chelation percent” value in series [7] (0.25 µM), in series [7] (0.5 µM), in series [7] (1 µM), in [7] (1.5 µM) and in [7] (2 µM) was “-” in each case. For the same compound, the “Selectivity Index” value in series [8] is reported as 7.23.

For `Cc1nc(-c2ccc(O)c(O)c2)cs1` [Compound 3a], the IC50 was 51.3 µM in series [1], 12 µM in series [2], 31.5 µM in series [8] and > 100 µM in series [9]. In series [3], the “TAC Eq Ascorbic Acid” value was 0.38 Eq Ascorbic Acid. Besides, the “RP Eq Ascorbic Acid” value in series [4] stood at 1.73 Eq Ascorbic Acid. Further, the “RP Eq Trolox” value in series [4] was 1.44 Eq Trolox. In series [5], the “FRAP Eq Trolox” value is 0.95 Eq Trolox. Moreover, the “CUPRAC Eq Trolox” value in [6] was 3.17 Eq Trolox. In addition, the “ferrous ion chelation percent” value in [7] (0.25 µM), in series [7] (0.5 µM), in series [7] (1 µM), in series [7] (1.5 µM) and in series [7] (2 µM) was “-” throughout. Besides, in series [8], the “Selectivity Index” value is >3.17. Also, in [9] (48 h, result in words), the “toxicity on BJ cells” value is “no significant toxicity on BJ cells”.

As a reminder, the IC50 is the midpoint of a concentration-inhibition curve.

Values taken from article PMC11351550, “Synthesis, Cytotoxicity and Antioxidant Activity Evaluation of Some Thiazolyl–Catechol Compounds” (Antioxidants, 2024).
